Test results taken from patent US12146871B2, “Method and device for physicochemical characterization of materials” (THE SOLUBILITY COMPANY OY, priority 2016, dated 2024).

Test: partition coefficient from intrinsic solubility in octanol and water by image analysis of individual crystals
Format: physicochemical
Details: octanol and water (separate solubilities); from aqueous solubility of the unionized form (pH 2-3) and solubility in octanol
Method: A solubility-pH profile was performed in aqueous buffers over the physiologically relevant range of pH 2-9. […] Additionally, using logP, pKa and pH data, the logD value was determined as a function of pH. All parameters determined using the present method correlated with theory and literature data. Thus, by only observing and characterizing one variable, i.e. the particle(s) size decrease of an individual crystal, it is possible to mine, in a high-content analysis (HCA) manner, a full physicochemical profile of six fundamental material characteristics for a material. Analysis device was constructed as a flow-through device consisting of two resistant flat metal plates. In the lower thereof a 1 mm hole was drilled as an outlet channel. The top metal plate hosted the inlet channel and was prepared with a glass window to facilitate detecting. A 0.2 μm inorganic membrane filter (Whatman nuclepore) was placed on the bottom plate and the particle(s) to be analyzed placed on top of the portion of the membrane filter being above the outlet channel. […] Equilibrium solubility, S was calculated from image analysis data based on a reorganized single-particle diffusion layer model dissolution rate equation, where S0 is the intrinsic solubility of the unionized form. Further, based on intrinsic solubility data in octanol and water the partition coefficient (logP) was determined according to, […]

logP: 4.1
Structure (SMILES): COc1ccc2c(c1)c(CC(=O)O)c(C)n2C(=O)c1ccc(Cl)cc1 [indomethacin]
